# Data taken from patent US7906283B2, “Methods to identify patients at risk of developing adverse events during treatment with antidepressant medication” (The United States of America as represented by the …, priority 2006, dated 2011).
# Tested on: outpatients with major depressive disorder
# Assay: STAR*D trial: treatment-emergent suicidal ideation (TESI) by QIDS-SR16 item 12 during citalopram treatment
# Assay type: in vivo, human
# Settings: citalopram typically starting at 20 mg/day, up to 14 weeks; comparison group n=1742; 53 participants missing data excluded
# From the text: DNA was collected from a clinically-representative cohort of 1938 outpatients with major depressive disorder enrolled in the Sequenced Treatment Alternatives to Relieve Depression (STAR*D) trial. Outpatients 18-75 years of age with a baseline 17-item Hamilton Depression Rating Scale (see Hamilton et al., J. Neurol. Neurosurg. Psychiatry, 23: 56-62 (1960); and Hamilton, Br. J. Soc. Clin. Psychol., 6(4): 278-296 (1967)) (HRSD17) score of ≧14 who met the Diagnostic and Statistical Manual of Mental Disorders (DSM)-IV criteria for non-psychotic major depressive disorder (MDD) were eligible for the trial. […]
# The 16-item Quick Inventory of Depressive Symptomatology—Self-report (QIDS-SR16) was used as a measure of symptom severity (see Rush et al., Int. J. Methods Psychiatr. Res., 9: 45-59 (2000): Rush et al., Biol. Psychiatry, 54(5): 573-583 (2003); Trivedi et al., Psychol. Med., 34(1): 73-82 (2004); Rush et al., Neuropsychompharmacology, 30(2): 405-416 (2005); and Rush et al., Biol. Psychiatry, 59(6): 493-501 (2006)) and was obtained at baseline and at each bi-weekly clinic visit. […] Participants who scored “0” on this item before citalopram treatment, but who scored 1, 2, or 3 on the same item at least once while receiving citalopram were defined as TESI cases (n=120). […]
structure (smiles),measurement,value
CN(C)CCCC1(c2ccc(F)cc2)OCc2cc(C#N)ccc21 (stereo not shown) [citalopram],"TESI cases (scored 0 on QIDS-SR16 item 12 before citalopram treatment, but 1, 2 or 3 at least once while receiving citalopram)",120 participants
